These results are taken from patent US20250163104A1, “MACROCYCLIC IMMUNOMODULATORS” (priority 2021, published 2025).

Where a SMILES comes first, the peptide text is derived from it. Bridges are numbered along the chain shown (N, C = ends). [ ]: non-standard residue; d: D form. The star is where a group is joined. ξ: configuration not given here. Phe(4-COOH) = N[C@@H](Cc1ccc(C(=O)O)cc1)C(=O)O; Phe(2,4-F2) = N[C@@H](Cc1ccc(F)cc1F)C(=O)O; Bip = N[C@@H](Cc1ccc(-c2ccccc2)cc1)C(=O)O; Phe(4-CN) = N#Cc1ccc(C[C@H](N)C(=O)O)cc1; Phe(3-Me) = Cc1cccc(C[C@H](N)C(=O)O)c1; Ala(cPent) = N[C@@H](CC1CCCC1)C(=O)O; Phe(2-F) = N[C@@H](Cc1ccccc1F)C(=O)O; Val(3-OH) = CC(C)(O)[C@H](N)C(=O)O; 4Pal = N[C@@H](Cc1ccncc1)C(=O)O; Cha = N[C@@H](CC1CCCCC1)C(=O)O; Cit = NC(=O)NCCC[C@H](N)C(=O)O; Ile(3ξ) = CCC(C)[C@H](N)C(=O)O; Carboxymethyl = O=C(O)C*; Orn = NCCC[C@H](N)C(=O)O; Pra = C#CC[C@H](N)C(=O)O; Dab = NCC[C@H](N)C(=O)O; Dap = NC[C@H](N)C(=O)O

This assay deals with T1, human PD-1 / PD-L1-Ig binding on Jurkat cell line over-expressing human PD-1 (Jurkat-PD-1) (Homo sapiens, UniProt Q15116).
T1 construct: expressed in transfected cells; host or cells: Jurkat
T1 sequence (Q15116 25-288): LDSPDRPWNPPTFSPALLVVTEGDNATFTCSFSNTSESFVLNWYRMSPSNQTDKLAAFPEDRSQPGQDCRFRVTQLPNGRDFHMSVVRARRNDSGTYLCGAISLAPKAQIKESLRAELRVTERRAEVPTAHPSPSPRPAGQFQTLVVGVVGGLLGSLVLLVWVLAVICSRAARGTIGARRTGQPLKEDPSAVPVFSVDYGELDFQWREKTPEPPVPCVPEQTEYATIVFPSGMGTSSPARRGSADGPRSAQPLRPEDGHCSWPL
Nature of the assay: Jurkat-PD-1 Cell Binding High-Content Screening Assay (CBA). The format is cell-based. The note with it: Jurkat-PD-1 cells, PE-labeled PD-L1-Ig 20 nM final; read-out: Jurkat HPD1_PDL1 IC50. The essentials: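 Jurkat-hPD-1 cells in DMEM with 10% fetal calf serum receive test compound and are held at 37° C for 2 h. PE-labeled PD-L1-Ig is added at 20 nM final and left for 1 hour. Cells are then fixed and Hoechst-stained, and binding is measured by imaging.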

As a reminder, the IC50 is the midpoint of a concentration-inhibition curve. As to `CC(C)C[C@H]1NC(=O)[C@H](CCCN)NC(=O)[C@H](CCCNC(N)=O)NC(=O)[C@H](Cc2ccc(-c3ccccc3)cc2)NC(=O)[C@H](C(C)C)NC(=O)[C@H](Cc2c[nH]c3ccccc23)NC(=O)[C@H](CC(=O)O)NC(=O)[C@H](CCc2ccncc2)NC(=O)[C@H](CN)NC(=O)CSC[C@@H](C(=O)N[C@@H](C)C(N)=O)NC(=O)[C@H]([C@@H](C)O)NC(=O)[C@H](C(C)C)NC(=O)[C@H](CC2CCCCC2)NC(=O)[C@H](CCN)NC1=O` [Compound 2104], the half-maximal inhibitory concentration (IC50) came out at 18.2 nM.
In the case of `Cc1cccc(C[C@@H]2NC(=O)[C@H](CC(=O)O)NC(=O)[C@H](Cc3ccc(C(=O)O)cc3)NC(=O)[C@H](Cc3ccncc3)NC(=O)CSC[C@@H](C(=O)N[C@@H](C)C(N)=O)NC(=O)[C@H]([C@@H](C)O)NC(=O)[C@H](C(C)C)NC(=O)[C@H](CC3CCCCC3)NC(=O)[C@H](CCN)NC(=O)[C@@H](CC(C)C)NC(=O)[C@H](CCCN)NC(=O)[C@H](CCCNC(N)=O)NC(=O)[C@H](Cc3ccc(-c4ccccc4)cc3)NC(=O)[C@H](C(C)C)NC2=O)c1` [Compound 1190] it was 4.5 nM.
`CCNC(=O)[C@H](C)NC(=O)[C@@H]1CSCC(=O)N[C@@H](Cc2ccncc2)C(=O)N[C@@H](Cc2ccc(C(=O)O)cc2)C(=O)N[C@@H](CC(=O)O)C(=O)N[C@@H](Cc2cccc(C)c2)C(=O)N[C@@H](C(C)C)C(=O)N[C@@H](Cc2ccc(-c3ccccc3)cc2)C(=O)N[C@@H]([C@@H](C)CC)C(=O)N[C@@H](CCCN)C(=O)N[C@H](CC(C)C)C(=O)N[C@@H](CCN)C(=O)N[C@@H](CC2CCCCC2)C(=O)N[C@@H](C(C)C)C(=O)N[C@@H]([C@@H](C)O)C(=O)N1` [Compound 2004]: the IC50 is 42.1 nM.
As to `CC(C)C[C@@H]1NC(=O)[C@H](Cc2c[nH]c3ccccc23)NC(=O)[C@H](CC(=O)O)NC(=O)[C@H](Cc2ccncc2)NC(=O)[C@H](Cc2ccc(OCC(=O)O)cc2)NC(=O)CSC[C@@H](C(=O)NCC(N)=O)NC(=O)[C@H](CO)NC(=O)[C@H](C(C)C)NC(=O)[C@H](CC2CCCCC2)NC(=O)[C@H](CC(N)=O)NC(=O)[C@@H](CC(C)C)NC(=O)[C@H](CN)NC(=O)[C@H](C(C)C)NC(=O)[C@H](Cc2ccc(-c3ccccc3)cc2)NC1=O` [Compound 1396] ({CH2CO}-Y(Carboxymethyl)[4Pal]DWL[Bip]V[Dap][dL]N[Cha]VSCG-NH2; thioether N-14), the IC50 worked out at 21.4 nM.
Regarding `CC(C)C[C@H]1NC(=O)[C@H](CCCN)NC(=O)[C@H](CCCNC(N)=O)NC(=O)[C@H](Cc2ccc(-c3ccccc3)cc2)NC(=O)[C@H](C(C)C)NC(=O)[C@H](Cc2c[nH]c3ccccc23)NC(=O)[C@H](CC(=O)O)NC(=O)[C@H](Cc2ccc(O)cc2)NC(=O)[C@H](CN)NC(=O)CSC[C@@H](C(=O)N[C@@H](C)C(N)=O)NC(=O)[C@H]([C@@H](C)O)NC(=O)[C@H](C(C)C)NC(=O)[C@H](CC2CCCCC2)NC(=O)[C@H](CCN)NC1=O` [Compound 1157], the IC50 was found to be 10.6 nM.
As for `CCC(C)[C@@H]1NC(=O)[C@H](Cc2ccc(-c3ccccc3)cc2)NC(=O)[C@H](C(C)C)NC(=O)[C@H](Cc2c[nH]c3ccccc23)NC(=O)[C@H](CC(N)=O)NC(=O)[C@H](Cc2ccc(O)cc2)NC(=O)[C@H](CN)NC(=O)CSC[C@@H](C(=O)N[C@@H](C)C(N)=O)NC(=O)[C@H]([C@@H](C)O)NC(=O)[C@H](C(C)C)NC(=O)[C@H](CC(C)C)NC(=O)[C@H](CCN)NC(=O)[C@@H](CC(C)C)NC(=O)[C@H](CCCCN)NC1=O` (stereo partly drawn) [Compound 1091] ({CH2CO}-[Dap]YNWV[Bip][Ile(3ξ)]K[dL][Dab]LVTCA-NH2; thioether N-14), the figure is 21.8 nM.
In the case of `CC(C)C[C@H]1NC(=O)[C@H](CCCN)NC(=O)[C@H](CCC(=O)O)NC(=O)[C@H](Cc2ccc(-c3ccccc3)cc2)NC(=O)[C@H](C(C)C)NC(=O)[C@H](Cc2c[nH]c3ccccc23)NC(=O)[C@H](CC(=O)O)NC(=O)[C@H](Cc2ccc(OCC(=O)O)cc2)NC(=O)[C@H](CN)NC(=O)CSC[C@@H](C(=O)N[C@@H](C)C(N)=O)NC(=O)[C@H]([C@@H](C)O)NC(=O)[C@H](C(C)C)NC(=O)[C@H](Cc2ccc(F)cc2F)NC(=O)[C@H](CCN)NC1=O` [Compound 1479] ({CH2CO}-[Dap]Y(Carboxymethyl)DWV[Bip]E[Orn][dL][Dab][Phe(2,4-F2)]VTCA-NH2; thioether N-14) it was 347 nM.
As for `CC(C)C[C@H]1NC(=O)[C@H](CCCN)NC(=O)[C@H](CCCNC(N)=O)NC(=O)[C@H](Cc2ccc(-c3ccccc3)cc2)NC(=O)[C@H]([C@@H](C)O)NC(=O)[C@H](Cc2c[nH]c3ccccc23)NC(=O)[C@H](CC(=O)O)NC(=O)[C@H](Cc2ccc(OCC(=O)O)cc2)NC(=O)[C@H](CN)NC(=O)CSC[C@@H](C(=O)N[C@@H](C)C(N)=O)NC(=O)[C@H]([C@@H](C)O)NC(=O)[C@H](C(C)C)NC(=O)[C@H](CC2CCCCC2)NC(=O)[C@H](CCN)NC1=O` [Compound 1315] ({CH2CO}-[Dap]Y(Carboxymethyl)DWT[Bip][Cit][Orn][dL][Dab][Cha]VTCA-NH2; thioether N-14), the figure is 18.6 nM.
In the case of `CC(C)C[C@H]1NC(=O)[C@H](CCCN)NC(=O)[C@H](CCC(=O)O)NC(=O)[C@H](Cc2ccc(-c3ccccc3)cc2)NC(=O)[C@H](C(C)C)NC(=O)[C@H](Cc2ccccc2F)NC(=O)[C@H](CC(=O)O)NC(=O)[C@H](Cc2ccc(C#N)cc2)NC(=O)[C@H](CC(N)=O)NC(=O)CSC[C@@H](C(=O)N[C@@H](C)C(N)=O)NC(=O)[C@H]([C@@H](C)O)NC(=O)[C@H](C(C)C)NC(=O)[C@H](CC2CCCCC2)NC(=O)[C@H](CCN)NC1=O` [Compound 2212] ({CH2CO}-N[Phe(4-CN)]D[Phe(2-F)]V[Bip]E[Orn][dL][Dab][Cha]VTCA-NH2; thioether N-14), the IC50 came to 37.6 nM.
As for `Cc1cccc(C[C@@H]2NC(=O)[C@H](CC(=O)O)NC(=O)[C@H](Cc3ccc(C(=O)O)cc3)NC(=O)[C@H](CN)NC(=O)CSC[C@@H](C(=O)N[C@@H](CCN)C(N)=O)NC(=O)[C@H]([C@@H](C)O)NC(=O)[C@H](C(C)C)NC(=O)[C@H](CC(C)C)NC(=O)[C@H](CCN)NC(=O)[C@@H](CC(C)C)NC(=O)[C@H](CCCN)NC(=O)[C@H](C(C)C)NC(=O)[C@H](Cc3ccc(-c4ccccc4)cc3)NC(=O)[C@H](C(C)C)NC2=O)c1` [Compound 2008] ({CH2CO}-[Dap][Phe(4-COOH)]D[Phe(3-Me)]V[Bip]V[Orn][dL][Dab]LVTC[Dab]-NH2; thioether N-14), the IC50 was 19.9 nM.
As for `Cc1cccc(C[C@@H]2NC(=O)[C@H](CC(=O)O)NC(=O)[C@H](Cc3ccc(OCC(=O)O)cc3)NC(=O)[C@H](CN)NC(=O)CSC[C@@H](C(N)=O)NC(=O)[C@H]([C@@H](C)O)NC(=O)[C@H](C(C)C)NC(=O)[C@H](CC3CCCCC3)NC(=O)[C@H](CCN)NC(=O)[C@@H](CC(C)C)NC(=O)[C@H](CCCN)NC(=O)[C@H](Cc3ccc(OCC(=O)O)cc3)NC(=O)[C@H](Cc3ccc(-c4ccccc4)cc3)NC(=O)[C@H](Cc3ccc(OCC(=O)O)cc3)NC2=O)c1` [Compound 1783] ({CH2CO}-[Dap]Y(Carboxymethyl)D[Phe(3-Me)]Y(Carboxymethyl)[Bip]Y(Carboxymethyl)[Orn][dL][Dab][Cha]VTC-NH2; thioether N-14), the figure is 14.4 nM; as for `C#CC[C@H](NC(=O)[C@H](CCN)NC(=O)[C@@H]1CSCC(=O)N[C@@H](CC(C)C)C(=O)N[C@@H](Cc2ccc(OCC(=O)O)cc2)C(=O)N[C@@H](CC(=O)O)C(=O)N[C@@H](Cc2cccc(C)c2)C(=O)N[C@@H](Cc2ccc(OCC(=O)O)cc2)C(=O)N[C@@H](Cc2ccc(-c3ccccc3)cc2)C(=O)N[C@@H](Cc2ccc(OCC(=O)O)cc2)C(=O)N[C@@H](CCCN)C(=O)N[C@H](CC(C)C)C(=O)N[C@@H](CCN)C(=O)N[C@@H](CC2CCCCC2)C(=O)N[C@@H](C(C)C)C(=O)N[C@@H](CCC(=O)O)C(=O)N1)C(=O)O` [Compound 2707] ({CH2CO}-LY(Carboxymethyl)D[Phe(3-Me)]Y(Carboxymethyl)[Bip]Y(Carboxymethyl)[Orn][dL][Dab][Cha]VEC[Dab][Pra]-OH; thioether N-14), 5 nM.
`CC(C)C[C@@H]1NC(=O)[C@H](Cc2c[nH]c3ccccc23)NC(=O)[C@H](CC(=O)O)NC(=O)[C@H](Cc2ccc(O)cc2)NC(=O)[C@H](Cc2ccccc2)NC(=O)CSC[C@@H](C(=O)N[C@@H](C)C(N)=O)NC(=O)[C@H]([C@@H](C)O)NC(=O)[C@H](C(C)C)NC(=O)[C@H](CC(C)C)NC(=O)[C@H](CCN)NC(=O)[C@@H](C)NC(=O)[C@H](CN)NC(=O)[C@H](C(C)C)NC(=O)[C@H](Cc2ccc(-c3ccccc3)cc2)NC1=O` [Compound 1097] ({CH2CO}-FYDWL[Bip]V[Dap][dA][Dab]LVTCA-NH2; thioether N-14): the half-inhibitory concentration (IC50) was determined as 132 nM.
In the case of `C#CC[C@H](NC(=O)[C@H](CCN)NC(=O)[C@@H]1CSCC(=O)N[C@@H](CCN)C(=O)N[C@@H](Cc2ccc(C(=O)O)cc2)C(=O)N[C@@H](CC(=O)O)C(=O)N[C@@H](Cc2cccc(C)c2)C(=O)N[C@@H](Cc2ccc(C(=O)O)cc2)C(=O)N[C@@H](Cc2ccc(-c3ccccc3)cc2)C(=O)N[C@@H](Cc2ccc(C(=O)O)cc2)C(=O)N[C@@H](CCCN)C(=O)N[C@H](CC(C)C)C(=O)N[C@@H](CCN)C(=O)N[C@@H](CC2CCCCC2)C(=O)N[C@@H](C(C)(C)O)C(=O)N[C@@H](Cc2cnc[nH]2)C(=O)N1)C(N)=O` [Compound 1849] ({CH2CO}-[Dab][Phe(4-COOH)]D[Phe(3-Me)][Phe(4-COOH)][Bip][Phe(4-COOH)][Orn][dL][Dab][Cha][Val(3-OH)]HC[Dab][Pra]-NH2; thioether N-14) it was 7.8 nM; in that of `CC[C@H](C)[C@@H]1NC(=O)[C@H](Cc2ccc(-c3ccccc3)cc2)NC(=O)[C@H](CC2CCCC2)NC(=O)[C@H](Cc2c[nH]c3ccccc23)NC(=O)[C@H](CC(=O)O)NC(=O)[C@H](Cc2ccc(OCC(=O)O)cc2)NC(=O)[C@H](CN)NC(=O)CSC[C@@H](C(=O)N[C@@H](C)C(N)=O)NC(=O)[C@H]([C@@H](C)O)NC(=O)[C@H](C(C)C)NC(=O)[C@H](CC2CCCCC2)NC(=O)[C@H](CCN)NC(=O)[C@@H](CC(C)C)NC(=O)[C@H](CCCN)NC1=O` [Compound 1723] ({CH2CO}-[Dap]Y(Carboxymethyl)DW[Ala(cPent)][Bip]I[Orn][dL][Dab][Cha]VTCA-NH2; thioether N-14), 20.8 nM.
